# According to ChEMBL document CHEMBL5143665, “Discovery and preclinical evaluations of WX-0593, a novel ALK inhibitor targeting crizotinib-resistant mutations” (Bioorg Med Chem Lett, 2022):
# Calls of active or inactive are those of the source. No cut-off for these calls is given here.
# Experiments:
# LU-01-0319R [1] = test: Antitumor activity against crizotinib-resistant patient derived LU-01-0319R cells xenografted in nude mouse assessed as tumor regression at 10 mg/kg, po dosed once daily for 21 days; assay type: functional, organism-based; conditions: Homo sapiens, time 21.0 day
# BaF3 [2] = test: Antiproliferative activity against crizotinib resistant mouse BaF3 cells expressing EML4 fused ALK I1171T mutant assessed as reduction in cell viability incubated for 72 hrs by Celltitre-Glo luminescent assay; assay type: functional, cell-based; conditions: BaF3, 72 h
# [3] = Half-life in Beagle dog at 1 mg/kg, iv; assay type: ADME, organism-based, Canis lupus familiaris; conditions: in vivo
# cells [4] = conditions: Mus musculus, BaF3, 72 h
# [5] = Toxicity in nude mouse xenografted with crizotinib-resistant patient derived LU-01-0319R cells assessed as body weight change at 2.5 to 10 mg/kg, po dosed once daily for 21 days; assay type: organism-based; conditions: in vivo, 504 h, dose 2.5-10 mg/kg, time 21 day
# cells [6] = conditions: Mus musculus, BaF3, 72 h; remark: listed apart in the source
# BaF3 [7] = test: Antiproliferative activity against mouse BaF3 cells harbouring SLC34A2-ROS1-L2026M mutant assessed as reduction in cell viability incubated for 72 hrs by Celltitre-Glo luminescent assay; assay type: functional, cell-based; conditions: BaF3, 72 h
# BaF3 [8] = test: Antiproliferative activity against mouse BaF3 cells harbouring CD74-ROS1-S1986F mutant assessed as reduction in cell viability incubated for 72 hrs by Celltitre-Glo luminescent assay; assay type: functional, cell-based; conditions: BaF3, 72 h
# BaF3 [9] = test: Antiproliferative activity against crizotinib resistant mouse BaF3 cells expressing EML4 fused ALK V1180L mutant assessed as reduction in cell viability incubated for 72 hrs by Celltitre-Glo luminescent assay; assay type: functional, cell-based; conditions: BaF3, 72 h
# [10] = target: T1, ALK tyrosine kinase receptor (Homo sapiens, UniProt Q9UM73)
# Target sequence in this assay (Q9UM73 whole entry): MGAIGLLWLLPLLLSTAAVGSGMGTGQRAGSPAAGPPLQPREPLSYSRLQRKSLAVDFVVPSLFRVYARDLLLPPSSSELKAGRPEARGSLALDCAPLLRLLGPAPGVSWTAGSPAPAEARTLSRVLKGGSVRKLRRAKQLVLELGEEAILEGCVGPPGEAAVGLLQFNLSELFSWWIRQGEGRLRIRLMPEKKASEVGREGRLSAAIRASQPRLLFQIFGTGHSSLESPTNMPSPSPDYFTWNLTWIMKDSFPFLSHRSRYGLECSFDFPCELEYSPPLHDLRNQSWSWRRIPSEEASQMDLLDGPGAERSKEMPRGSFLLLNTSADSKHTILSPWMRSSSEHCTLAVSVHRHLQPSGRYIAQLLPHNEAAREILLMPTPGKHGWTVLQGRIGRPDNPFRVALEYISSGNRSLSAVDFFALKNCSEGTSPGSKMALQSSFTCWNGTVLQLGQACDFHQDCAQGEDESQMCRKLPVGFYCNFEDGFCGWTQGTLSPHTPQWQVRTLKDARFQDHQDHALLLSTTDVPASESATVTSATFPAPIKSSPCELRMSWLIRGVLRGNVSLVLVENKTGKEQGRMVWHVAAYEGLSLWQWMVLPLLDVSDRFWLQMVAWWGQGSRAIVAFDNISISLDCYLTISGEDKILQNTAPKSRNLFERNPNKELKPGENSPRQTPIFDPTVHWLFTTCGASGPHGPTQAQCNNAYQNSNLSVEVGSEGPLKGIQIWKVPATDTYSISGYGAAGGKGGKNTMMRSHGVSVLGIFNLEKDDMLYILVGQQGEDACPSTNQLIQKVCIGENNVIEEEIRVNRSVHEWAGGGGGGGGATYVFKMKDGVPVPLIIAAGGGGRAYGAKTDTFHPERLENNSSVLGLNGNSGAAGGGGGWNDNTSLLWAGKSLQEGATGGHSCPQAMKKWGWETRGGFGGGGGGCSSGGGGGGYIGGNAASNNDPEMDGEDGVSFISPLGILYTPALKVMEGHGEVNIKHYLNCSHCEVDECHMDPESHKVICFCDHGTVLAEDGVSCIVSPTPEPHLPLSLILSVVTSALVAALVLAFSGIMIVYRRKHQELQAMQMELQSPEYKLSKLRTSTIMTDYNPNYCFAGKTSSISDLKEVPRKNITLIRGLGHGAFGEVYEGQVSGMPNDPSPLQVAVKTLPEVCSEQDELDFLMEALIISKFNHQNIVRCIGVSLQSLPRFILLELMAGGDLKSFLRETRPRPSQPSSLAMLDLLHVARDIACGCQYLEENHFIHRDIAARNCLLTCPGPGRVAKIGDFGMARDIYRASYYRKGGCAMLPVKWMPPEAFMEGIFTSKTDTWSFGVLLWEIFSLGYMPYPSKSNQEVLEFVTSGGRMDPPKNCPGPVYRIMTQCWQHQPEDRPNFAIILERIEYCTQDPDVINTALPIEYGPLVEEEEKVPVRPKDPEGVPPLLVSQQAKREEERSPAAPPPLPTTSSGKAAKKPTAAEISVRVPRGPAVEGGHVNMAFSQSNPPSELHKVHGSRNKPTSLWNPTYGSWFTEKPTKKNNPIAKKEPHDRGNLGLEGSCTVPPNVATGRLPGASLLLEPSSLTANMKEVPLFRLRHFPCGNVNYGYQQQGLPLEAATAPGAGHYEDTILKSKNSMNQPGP
# [11] = Cmax in Balb/c nude mouse at 5 mg/kg, po; assay type: ADME, organism-based; set-up: dose 5 mg/kg, route po; conditions: in vivo
# KARPAS-299 = test: cells; conditions: Homo sapiens
# Description: Antiproliferative activity against human KARPAS-299 cells harbouring wild type ALK assessed as reduction in cell viability by Celltitre-Glo luminescent assay
# [12] = AUC (0 to last) in Sprague-Dawley rat at 8 mg/kg, po; assay type: ADME, organism-based; set-up: time 0 - last, dose 8 mg/kg, route po; conditions: in vivo
# cells [13] = conditions: Mus musculus, Ba/F3 EML4-ALK-G1202R, 72 h
# BaF3 [14] = test: cells; conditions: Mus musculus
# Description: Antiproliferative activity against mouse BaF3 cells harbouring ALK L1196M mutant assessed as reduction in cell viability by Celltitre-Glo luminescent assay
# NCI-H3122 [15] = test: Inhibition of AKT phosphorylation in human NCI-H3122 cells at highest concentration by Western blotting analysis; assay type: cell-based
# BaF3 [16] = test: Antiproliferative activity against mouse BaF3 cells harbouring CD74-ROS1-D2033N mutant assessed as reduction in cell viability incubated for 72 hrs by Celltitre-Glo luminescent assay; assay type: functional, cell-based; conditions: BaF3, 72 h
# BaF3 [17] = test: Antiproliferative activity against crizotinib resistant mouse BaF3 cells expressing EML4 fused ALK L1152R mutant assessed as reduction in cell viability incubated for 72 hrs by Celltitre-Glo luminescent assay; assay type: functional, cell-based; conditions: BaF3, 72 h
# [18] = Toxicity in nude mouse xenografted with crizotinib-resistant patient derived LU-01-0319R cells assessed as tolerance at 2.5 to 10 mg/kg, po dosed once daily for 21 days; assay type: organism-based; conditions: in vivo, 504 h, dose 2.5-10 mg/kg, time 21 day
# [19] = Oral bioavailability in Balb/c nude mouse at 5 mg/kg; assay type: ADME, organism-based; conditions: in vivo
# [20] = Clearance in Balb/c nude mouse at 1 mg/kg, iv; assay type: ADME, organism-based; conditions: in vivo
# [21] = Half-life in Balb/c nude mouse at 1 mg/kg, iv; assay type: ADME, organism-based; conditions: in vivo
# BaF3 [22] = test: Antiproliferative activity against crizotinib resistant mouse BaF3 cells expressing EML4 fused ALK F1174C mutant assessed as reduction in cell viability incubated for 72 hrs by Celltitre-Glo luminescent assay; assay type: functional, cell-based; conditions: BaF3, 72 h
# [23] = Volume of distribution at steady state in Beagle dog at 1 mg/kg, iv; assay type: ADME, organism-based, Canis lupus familiaris; conditions: in vivo, read-out: Vdss
# LU-01-0319R [24] = test: Antitumor activity against crizotinib-resistant patient derived LU-01-0319R cells xenografted in nude mouse at 2.5 to 10 mg/kg, po dosed once daily for 21 days; assay type: functional, organism-based; conditions: Homo sapiens, dose 2.5-10 mg/kg, time 21.0 day
# BaF3 [25] = test: cells; conditions: Mus musculus; remark: listed apart in the source
# Description: Antiproliferative activity against mouse BaF3 cells harbouring ALK wild type assessed as reduction in cell viability by Celltitre-Glo luminescent assay
# [26] = target: T2, Signal transducer and activator of transcription 5A (Homo sapiens) (UniProt P42229); test: Inhibition of STAT5 phosphorylation in human NCI-H3122 cells by Western blotting analysis; assay type: cell-based; conditions: DDE = dose-dependent effect
# T2 sequence (whole entry): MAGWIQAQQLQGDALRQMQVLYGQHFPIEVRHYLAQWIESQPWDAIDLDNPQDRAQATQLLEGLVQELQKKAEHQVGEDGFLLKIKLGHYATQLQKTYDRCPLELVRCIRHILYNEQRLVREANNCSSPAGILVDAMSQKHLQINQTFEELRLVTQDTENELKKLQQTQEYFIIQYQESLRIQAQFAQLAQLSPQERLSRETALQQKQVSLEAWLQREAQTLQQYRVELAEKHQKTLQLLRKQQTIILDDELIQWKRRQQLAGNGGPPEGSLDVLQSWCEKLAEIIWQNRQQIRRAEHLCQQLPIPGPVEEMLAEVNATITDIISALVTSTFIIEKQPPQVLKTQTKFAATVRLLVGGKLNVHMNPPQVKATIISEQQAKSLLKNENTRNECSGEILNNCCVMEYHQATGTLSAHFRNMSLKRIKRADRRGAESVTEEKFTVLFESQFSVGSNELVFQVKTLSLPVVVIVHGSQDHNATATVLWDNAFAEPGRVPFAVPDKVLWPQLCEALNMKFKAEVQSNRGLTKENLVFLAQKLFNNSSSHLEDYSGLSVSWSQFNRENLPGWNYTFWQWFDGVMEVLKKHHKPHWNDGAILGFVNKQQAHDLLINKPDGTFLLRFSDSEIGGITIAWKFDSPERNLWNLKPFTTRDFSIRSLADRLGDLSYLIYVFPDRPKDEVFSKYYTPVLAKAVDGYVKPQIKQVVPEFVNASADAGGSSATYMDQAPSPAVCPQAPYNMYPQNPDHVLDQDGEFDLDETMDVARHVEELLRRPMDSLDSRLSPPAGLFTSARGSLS
# [27] = Cmax in Cynomolgus monkey at 2 mg/kg, po; assay type: ADME, organism-based, Macaca fascicularis; set-up: dose 2 mg/kg, route po; conditions: in vivo
# LU-01-0319 = test: Antitumor activity against crizotinib-resistant patient derived LU-01-0319 cells xenografted in mouse assessed as tumor regression at 2.5 mg/kg, po; assay type: functional, organism-based; conditions: Homo sapiens
# cells [28] = conditions: Mus musculus, Ba/F3 EML4-ALK, 72 h
# BaF3 [29] = test: Antiproliferative activity against crizotinib resistant mouse BaF3 cells expressing EML4 fused ALK T1151Tins mutant assessed as reduction in cell viability incubated for 72 hrs by Celltitre-Glo luminescent assay; assay type: functional, cell-based; conditions: BaF3, 72 h, read-out: IC50
# BaF3 [30] = test: Antiproliferative activity against crizotinib resistant mouse BaF3 cells expressing EML4 fused ALK I1171S mutant assessed as reduction in cell viability incubated for 72 hrs by Celltitre-Glo luminescent assay; assay type: functional, cell-based; conditions: BaF3, 72 h
# [31] = target: ALK tyrosine kinase receptor (Homo sapiens, UniProt Q9UM73, C1156Y)
# BaF3 [32] = test: Antiproliferative activity against crizotinib resistant mouse BaF3 cells expressing EML4 fused ALK F1174V mutant assessed as reduction in cell viability incubated for 72 hrs by Celltitre-Glo luminescent assay; assay type: functional, cell-based; conditions: BaF3, 72 h
# BaF3 [33] = test: cells; conditions: Mus musculus; remark: listed apart in the source
# Description: Antiproliferative activity against mouse BaF3 cells harbouring ALK C1156Y mutant assessed as reduction in cell viability by Celltitre-Glo luminescent assay
# [34] = AUC (0 to last) in Cynomolgus monkey at 2 mg/kg, po; assay type: ADME, organism-based, Macaca fascicularis; set-up: time 0 - last, dose 2 mg/kg, route po; conditions: in vivo
# cells [35] = conditions: Mus musculus, BaF3, 72 h; remark: listed apart in the source
# BaF3 [36] = test: Antiproliferative activity against crizotinib resistant mouse BaF3 cells expressing EML4 fused ALK L1152P mutant assessed as reduction in cell viability incubated for 72 hrs by Celltitre-Glo luminescent assay; assay type: functional, cell-based; conditions: BaF3, 72 h
# NCI-H3122 [37] = test: Inhibition of ERK phosphorylation in human NCI-H3122 cells by Western blotting analysis; assay type: cell-based; conditions: DDE = dose-dependent effect
# BaF3 [38] = test: Antiproliferative activity against crizotinib resistant mouse BaF3 cells expressing EML4 fused ALK I1171N mutant assessed as reduction in cell viability incubated for 72 hrs by Celltitre-Glo luminescent assay; assay type: functional, cell-based; conditions: BaF3, 72 h, read-out: IC50
# [39] = AUC (0 to last) in Balb/c nude mouse at 5 mg/kg, po; assay type: ADME, organism-based; set-up: time 0 - last, dose 5 mg/kg, route po; conditions: in vivo
# [40] = Cmax in Sprague-Dawley rat at 8 mg/kg, po; assay type: ADME, organism-based; set-up: dose 8 mg/kg, route po; conditions: in vivo
# [41] = Volume of distribution at steady state in Balb/c nude mouse at 1 mg/kg, iv; assay type: ADME, organism-based; conditions: in vivo, read-out: Vdss
# [42] = target: T1, ALK tyrosine kinase receptor; test: Inhibition of ALK phosphorylation in human NCI-H3122 cells by Western blotting analysis; assay type: cell-based; conditions: DDE = dose-dependent effect
# Target sequence in this assay (Q9UM73 19-1620 limits assumed): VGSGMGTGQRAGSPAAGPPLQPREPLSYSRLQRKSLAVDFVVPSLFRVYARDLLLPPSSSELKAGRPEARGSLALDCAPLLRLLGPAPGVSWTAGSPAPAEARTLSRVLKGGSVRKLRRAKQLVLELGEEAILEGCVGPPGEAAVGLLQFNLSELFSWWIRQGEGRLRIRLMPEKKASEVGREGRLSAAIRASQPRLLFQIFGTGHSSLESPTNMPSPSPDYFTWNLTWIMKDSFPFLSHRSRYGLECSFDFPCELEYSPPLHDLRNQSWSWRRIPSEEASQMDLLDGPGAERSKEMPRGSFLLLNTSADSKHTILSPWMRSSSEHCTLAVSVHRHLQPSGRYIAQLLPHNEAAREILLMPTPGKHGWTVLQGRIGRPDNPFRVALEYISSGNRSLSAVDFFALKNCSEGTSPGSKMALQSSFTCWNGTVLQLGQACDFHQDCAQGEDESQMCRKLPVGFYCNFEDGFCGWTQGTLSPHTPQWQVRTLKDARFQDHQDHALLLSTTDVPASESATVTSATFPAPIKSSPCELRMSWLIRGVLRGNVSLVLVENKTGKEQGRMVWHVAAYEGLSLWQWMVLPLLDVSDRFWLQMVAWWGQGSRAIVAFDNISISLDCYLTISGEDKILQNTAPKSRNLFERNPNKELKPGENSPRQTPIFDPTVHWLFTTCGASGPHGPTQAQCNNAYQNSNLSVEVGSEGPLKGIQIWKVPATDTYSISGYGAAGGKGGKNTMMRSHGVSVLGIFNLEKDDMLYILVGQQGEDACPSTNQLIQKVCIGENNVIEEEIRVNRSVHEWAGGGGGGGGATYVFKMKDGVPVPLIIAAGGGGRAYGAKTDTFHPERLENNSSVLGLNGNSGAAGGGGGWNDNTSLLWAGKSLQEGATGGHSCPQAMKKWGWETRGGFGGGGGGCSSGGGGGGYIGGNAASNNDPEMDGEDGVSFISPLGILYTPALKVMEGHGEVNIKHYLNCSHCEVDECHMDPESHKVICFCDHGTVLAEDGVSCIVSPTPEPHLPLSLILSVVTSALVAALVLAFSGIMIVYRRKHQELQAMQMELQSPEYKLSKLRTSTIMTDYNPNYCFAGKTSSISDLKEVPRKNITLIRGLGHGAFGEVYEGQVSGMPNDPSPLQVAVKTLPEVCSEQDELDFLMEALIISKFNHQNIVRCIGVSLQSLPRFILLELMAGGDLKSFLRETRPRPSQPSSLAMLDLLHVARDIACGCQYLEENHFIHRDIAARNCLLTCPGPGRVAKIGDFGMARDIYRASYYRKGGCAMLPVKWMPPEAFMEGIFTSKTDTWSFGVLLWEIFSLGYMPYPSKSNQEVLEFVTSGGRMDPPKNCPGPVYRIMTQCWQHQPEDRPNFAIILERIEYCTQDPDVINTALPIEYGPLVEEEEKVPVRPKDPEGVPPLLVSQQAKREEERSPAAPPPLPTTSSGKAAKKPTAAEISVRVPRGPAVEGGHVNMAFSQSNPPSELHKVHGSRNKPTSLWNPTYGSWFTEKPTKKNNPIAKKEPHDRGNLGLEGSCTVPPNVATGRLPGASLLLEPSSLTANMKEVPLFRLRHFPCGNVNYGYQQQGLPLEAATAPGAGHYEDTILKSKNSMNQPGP
# BaF3 [43] = test: Antiproliferative activity against mouse BaF3 cells harbouring CD74-ROS1-S1986Y mutant assessed as reduction in cell viability incubated for 72 hrs by Celltitre-Glo luminescent assay; assay type: functional, cell-based; conditions: BaF3, 72 h
# [44] = Clearance in Beagle dog at 1 mg/kg, iv; assay type: ADME, organism-based, Canis lupus familiaris; conditions: in vivo
# Chain of ALK tyrosine kinase receptor (Homo sapiens, UniProt Q9UM73, C1156Y) (Q9UM73 19-1620 C1156Y limits assumed): as the sequence (Q9UM73 19-1620 limits assumed) above, with C1138Y counted along it
smiles,measurement,setting,value
COc1cc(N2CCC3(CCN(C)CC3)CC2)ccc1Nc1ncc(Cl)c(Nc2ccccc2P(C)(C)=O)n1 [IRUPLINALKIB],Activity,LU-01-0319R [1],Active
same,IC50,BaF3 [2],11 nM
same,half-life,[3],6.47 h
same,IC50,cells [4],36 nM
same,Activity,[5],Non-Toxic
same,IC50,cells [6],36 nM
same,IC50,BaF3 [7],12 nM
same,IC50,BaF3 [8],22 nM
same,IC50,BaF3 [9],8 nM
same,IC50,[10],1.6 nM
same,Cmax,[11],741 ng/mL
same,IC50,KARPAS-299,14.5 nM
same,AUC(0-t),[12],4000 ng·h/mL
same,IC50,cells [13],96 nM
same,IC50,BaF3 [14],24 nM
same,inhibition,NCI-H3122 [15],Active
same,IC50,BaF3 [16],33 nM
same,IC50,BaF3 [17],4 nM
same,Activity,[18],Non-Toxic
same,bioavailability,[19],66.2%
same,clearance,[20],22.4 mL/min/kg
same,half-life,[21],1.38 h
same,IC50,BaF3 [22],36 nM
same,Vd,[23],4.6 L/kg
same,Activity,LU-01-0319R [24],Active
same,IC50,BaF3 [25],13 nM
same,inhibition,[26],Dde
same,Cmax,[27],92.2 ng/mL
same,Activity,LU-01-0319,Active
same,IC50,cells [28],21 nM
same,IC50,BaF3 [29],12 nM
same,IC50,BaF3 [30],32 nM
same,IC50,[31],1.8 nM
same,IC50,BaF3 [32],22 nM
same,IC50,BaF3 [33],21 nM
same,AUC(0-t),[34],598 ng·h/mL
same,IC50,cells [35],11 nM
same,IC50,BaF3 [36],1 nM
same,inhibition,NCI-H3122 [37],Dde
same,IC50,BaF3 [38],17 nM
same,AUC(0-t),[39],2450 ng·h/mL
same,Cmax,[40],499 ng/mL
same,Vd,[41],2.33 L/kg
same,inhibition,[42],Dde
same,IC50,BaF3 [43],15 nM
same,clearance,[44],8.6 mL/min/kg
